Data taken from patent US20070059364A1, “Active substance combination comprising a compound with npy receptor affinity and a compound with 5-ht6 receptor affinity” (Laboratorios Del Dr. Esteve S.A., priority 2003, published 2007).
Counter-ions that a name gives are not always drawn.

How the values were obtained:
Neuropeptide Y2 receptor = target: T1, Neuropeptide Y2 receptor (Rattus norvegicus, UniProt Q9ERC0); experiment: Binding to Neuropeptide Y2, Method (III), [125I]-PYY3-36, rat hypoccampus membranes; conditions: [125I]-PYY(3-36)
T1 construct: from tissue; host or cells: rat hippocampus membranes (male Wistar rats)
T1 sequence (Q9ERC0 1-381): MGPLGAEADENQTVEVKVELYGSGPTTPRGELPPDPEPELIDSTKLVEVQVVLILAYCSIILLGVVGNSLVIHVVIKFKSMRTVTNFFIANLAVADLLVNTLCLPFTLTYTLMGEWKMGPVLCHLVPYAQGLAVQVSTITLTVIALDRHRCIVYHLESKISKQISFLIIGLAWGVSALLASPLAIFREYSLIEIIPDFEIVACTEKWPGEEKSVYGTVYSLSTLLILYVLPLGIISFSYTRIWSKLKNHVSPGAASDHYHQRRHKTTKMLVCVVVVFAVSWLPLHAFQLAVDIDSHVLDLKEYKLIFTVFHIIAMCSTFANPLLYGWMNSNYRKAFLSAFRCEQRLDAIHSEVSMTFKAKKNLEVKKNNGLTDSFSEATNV
Experimental: Binding to Neuropeptide Y2
(§1) Male Wistar rats are sacrificed by decapitation, their brains are rapidly removed and the hypoccampus is dissected. Homogenization is performed in cold conditions in the buffer: 120 mM NaCl, 4.7 mM KCl, 2.2 mM CaCl2, 1.2 mM KH2PO4, 1.2 mM MgSO4, 25 mM NaHCO3, 5.5 mM glucose, pH 7.4, by means of a Ultra-Turrax homogenizer for 15 seconds at 13,500 rpm. The ratio between fresh tissue weight and buffer volume is of ten times. The membrane is centrifuged for 10 min at 48,000 g. The supernatant is discarded and the pellet is washed, resuspended and recentrifuged two more times. The final membrane resuspension is performed in the buffer: 120 mM NaCl, 4.7 mM KCl, 2.2 mM CaCl2, 1.2 mM KH2PO4, 1.2 mM MgSO4, 25 mM NaHCO3, 5.5 mM glucose, 0.1% BSA, 0.05% bacitracin, pH 7.4, at a 90 ml/g ratio of fresh issue. […] Incubation volume: 500 μl. […] The filters are cold-washed three times with three milliliters of the same buffer used in homogenization. […] Non-specific binding is determined in the presence of 1 μM of pNPY (Neuropeptide Y of porcine origin). The assays are performed in triplicate.

[1] = target: T2, recombinant human 5HT6 receptor (Homo sapiens, UniProt P50406); experiment: Binding to the 5HT6 serotonin receptor, [3H]-LSD, HEK-293 cell membranes
T2 construct: purchased Receptor Biology; host or cells: HEK-293 cell membranes
T2 sequence (P50406 whole entry): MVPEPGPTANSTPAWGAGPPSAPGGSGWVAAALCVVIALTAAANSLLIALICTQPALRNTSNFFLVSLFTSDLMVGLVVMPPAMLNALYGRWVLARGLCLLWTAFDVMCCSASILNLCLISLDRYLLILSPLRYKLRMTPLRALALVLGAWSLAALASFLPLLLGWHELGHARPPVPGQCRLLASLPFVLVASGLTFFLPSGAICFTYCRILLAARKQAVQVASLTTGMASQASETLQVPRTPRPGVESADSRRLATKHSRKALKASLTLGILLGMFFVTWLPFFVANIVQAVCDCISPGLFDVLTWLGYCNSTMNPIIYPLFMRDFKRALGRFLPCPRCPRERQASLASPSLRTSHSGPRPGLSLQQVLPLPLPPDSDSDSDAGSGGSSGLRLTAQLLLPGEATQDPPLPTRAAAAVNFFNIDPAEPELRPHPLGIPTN
Experimental: Binding to the 5HT6 Serotonin Receptor
The respective part of the literature descriptions is incorporated here by reference and form part of the disclosure. […] The assays are carried out in triplicate.

Neuropeptide Y5 receptor = target: T3, Neuropeptide Y5 receptor (Rattus norvegicus, UniProt Q63634); experiment: Neuropeptide Y5 receptor binding, Method (I), [125I]-PYY3-36 with BIBP 3226, rat cortex membranes; conditions: [125I]-PYY(3-36), BIBP 3226 sat.
T3 construct: from tissue; host or cells: rat brain cortex membranes (male Wistar rats)
T3 sequence (Q63634 1-445): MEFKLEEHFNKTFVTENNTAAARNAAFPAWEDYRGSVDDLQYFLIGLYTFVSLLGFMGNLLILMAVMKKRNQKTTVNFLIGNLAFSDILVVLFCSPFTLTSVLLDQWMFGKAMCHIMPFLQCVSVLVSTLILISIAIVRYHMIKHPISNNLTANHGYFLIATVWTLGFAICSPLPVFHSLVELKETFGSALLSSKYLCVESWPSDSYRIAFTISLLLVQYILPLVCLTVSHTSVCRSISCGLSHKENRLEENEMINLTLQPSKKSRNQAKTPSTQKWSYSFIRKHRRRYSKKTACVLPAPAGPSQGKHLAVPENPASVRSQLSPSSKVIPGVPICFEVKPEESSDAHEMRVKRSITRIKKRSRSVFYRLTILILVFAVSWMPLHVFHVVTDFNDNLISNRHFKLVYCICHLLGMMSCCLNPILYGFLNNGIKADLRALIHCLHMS
Experimental: as §1, with “the cortex” for “the hypoccampus”, “of twenty” for “of ten”, “recentrifuged three” for “recentrifuged two”, “times.” for “times. The final membrane resuspension is performed in the buffer: 120 mM NaCl, 4.7 mM KCl, 2.2 mM CaCl2, 1.2 mM KH2PO4, 1.2 mM MgSO4, 25 mM NaHCO3, 5.5 mM glucose, 0.1% BSA, 0.05% bacitracin, pH 7.4, at a 90 ml/g ratio of fresh issue.”, “with two” for “with three”

rat Y5 receptor = target: T4, rat Y5 receptor (Rattus norvegicus, UniProt Q63634); experiment: Neuropeptide Y5 receptor binding, Method (II), [125I]-PYY, C6 cells transfected with rat Y5 receptor; conditions: Y5 rat recombinant receptor, cell C6
T4 construct: expressed in transfected cells; host or cells: C6 cells
T4 sequence (Q63634 1-445): T3 sequence (Q63634 1-445)
Experimental: Neuropeptide Y5 Receptor Binding Studies:
The experimental protocol follows the method described by Y. Hu, B. T. Bloomquist et al. in Y. Hu, B. T. Bloomquist et al., The Journal of Biological Chemistry, 1996, 271, 26315-26319 with modifications. Cells C6 were transfected with the rat Y5 receptor. The cells were grown under standard culture conditions in 150 cm^2 dishes and they were harvested using a rubber scraper and 10 ml PBS. The cells from five dishes were collected and centrifuged 2.500 g for 5 min. The pellet was washed by resuspending in 3 ml buffer (Tris-HCl 10 mM, pH 7.4), homogenized using a Potter S homogenizer, 10 strokes at 600 rpm and centrifuged in cold conditions at 48.000 g for 20 min (4° C.). The resulting pellet was resuspended in cold 8 ml membrane buffer (Tris-HCl 25 mM, NaCl 120 mM, KCl 5 mM, KH2PO4 1, 2 mM, CaCl2 2, 5 mM, MgSO4 1, 2 mM, BSA 0.15 mg/ml, Bacitracine 0.5 mg/ml, pH 7, 4) and rehomogenized using the Potter S, 10 strokes at 600 rpm. The protein concentration of the used membrane in the incubation was approximately 40 μg/ml. The radioligand is [^125I]-PYY in a concentration of 100 pM. The incubation volume is 200 μl. […] Non-specific binding is determined in the presence of 1 μM of NPY. […]

## Cl.O=C(CN1CCC(N2C(=O)OCc3ccccc32)CC1)Nc1ccc2c(c1)-c1ccccc1C2=O [Example 3a, 2-[4-(2-oxo-4H-benzo[d][1,3]oxazin-1-yl)-piperidin-1-yl]-N-(9-oxo-9H-fluoren-3-yl)-acetamide hydrochloride]
other
  melting point: > 275 °C
Neuropeptide Y2 receptor
  Ki: > 1000 nM

## CN(C)CCn1ccc2c(NS(=O)(=O)CCc3cccc4ccccc34)cccc21 [Example 5d, N-[1-(2-dimethylaminoethyl)-1H-indole-4-yl]-2-(naphthalene-1-yl)-ethanesulfonamide]
other
  melting point: 47 to 54 °C
[1]; 10^−6 M, compounds of general formula (Id), Table 1d
  inhibition at 1 µM: 98.1%

## CN(C)CCn1ccc2ccc(NS(=O)(=O)c3ccc(-c4ccccc4)cc3)cc21 [Example 5f, N-[1-(2-Dimethylaminoethyl)-1H-indol-6-yl]-4-phenylbenzenesulfonamide]
[1]; compounds of general formula (If), Table 1f
  Ki: 129 nM

## O=C(CN1CCC(N2C(=O)OCc3ccccc32)CC1)Nc1ccc2c(c1)CCCC2=O [Example 6a, 2-[4-(2-oxo-4H-benzo[d][1,3]oxazin-1-ylipiperidin-1-yl]-N-(5-oxo-5,6,7,8-tetrahidro-naphthalene-2-yl)-acetamide hydrochloride]
Neuropeptide Y2 receptor
  Ki: > 1000 nM
Neuropeptide Y5 receptor
  Ki: 18.4 nM

## Cc1ccc2c(c1)COC(=O)N2C1CCN(CC(=O)Nc2ccc3c(c2)-c2ccccc2C3=O)CC1.Cl [Example 20a, 2-[4-(6-methyl-2-oxo-4H-benzo[d][1,3]oxazin-1-yl)-piperidin-1-yl]-N-(9-oxo-9H-fluoren-3-yl)-acetamide hydrochloride]
other
  melting point: 250 to 252 °C
Neuropeptide Y2 receptor
  Ki: > 1000 nM

## O=C(CN1CCC(N2C(=O)OCc3cc(F)ccc32)CC1)Nc1ccc2ncccc2c1 [Example 111a, 2-[4-(6-Fluoro-2-oxo-4H-benzo[d][1,3]oxazin-1-yl)-piperidin-1-yl]-N-quinolin-6-yl-acetamide]
Rat Y5 receptor
  IC50: 7.7 nM
